In PubChem BioAssay AID179 (DTP/NCI, 2004) one finds EC50, IC50 and outcome data, which are given here for 71 compounds.

The source made the active and inactive calls.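 How the source made its calls: active means compounds giving half or more protection of infected cells from virus-caused growth loss, again on retest; inactive means the rest.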

The test system of this assay is CEM cells HIV-1 protection, formazan growth assay. Put plainly: NCI AIDS Antiviral Assay. The following applies: for IC50: measured here: growth of uninfected CEM cells. The essentials: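 Steps: treat uninfected and HIV-1-infected human CEM cells at five drug levels; quantify growth by soluble formazan; retest any compound reaching 50% protection; classify actives from the retest.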

As for `O=C1C[C@@H]2C(COC(=O)c3ccccc3)N(OCc3ccccc3)C[C@@H]2O1` (some centres undefined), the EC50 – broadly, the concentration giving half of the maximal effect – was more than 97.7 µM and the concentration for half-maximal inhibition (IC50) (as a rule, the concentration that gives 50% inhibition) was more than 97.7 µM.
With `Cc1nc2ccc(F)cc2c2c1CCN2c1ccc(Cl)cc1`, the EC50 was more than 100 µM and the IC50 stood at 5.75 µM.
Consider `NC(=O)C1=CC2C3C=CC2(O)C(=O)OC3O1` (centres undefined), for which the EC50 was more than 1120 µM and the half-inhibitory concentration (IC50) was 1.17 µM.
`COC1=CC=C2CC(=C1)CCC1C2CCC2(C)C(=O)CCC12` (centres undefined): the result was inactive.
The same measure, in the same setting: the value for `O=C1OC2C(O)COC2(O)C1(O)Cc1cc(O)c(O)c(Br)c1Br` (centres undefined) was “inactive”.
Regarding `Cl[Si]1(Cl)Oc2ccccc2O[Si](Cl)(Cl)Oc2ccccc2O1`, the EC50 is more than 12.6 µM and the IC50 was more than 12.6 µM.
Take `CC(C)(C)c1cc(CCC(=O)Nc2ccc(Cl)cc2Cl)nc(N)n1`: the EC50 was more than 135 µM and the IC50 was more than 135 µM.
For `CCCCCCCCCCCCCCCCCC(CCCCCCCCCCCCCCCCC)OP(=O)(O)O`, the result was inactive.
As to `COc1cc(C)c2c(=O)c3ccccc3n(C)c2c1`, the concentration giving a half-maximal response (EC50) is 2.82 µM and the concentration for half-maximal inhibition (IC50) was found to be 30.2 µM.
For `N=C1N(c2ccccc2)C(=S)C(=Nc2ccccc2)N1c1ccccc1` the same measures were more than 200 µM and 3.89 µM.
Take `O=C(Nc1ccc(-c2ccco2)oc1=O)c1ccccc1`: the EC50 was more than 200 µM and the half-maximal inhibitory concentration (IC50) is more than 200 µM.
For the compound `CCCCCCCCCCCCCCCC(=O)OCCOCCOCCOCCOCCOC(=O)CCCCCCCCCCCCCCC`, the result was inactive.
Consider `O=C(NNC(=S)Nc1cccc(Cl)c1)c1cc(-c2ccccc2)nc2ccccc12`, for which the EC50 was more than 200 µM and the IC50 amounted to 12 µM.
For `Cc1ccc(N2C(=O)CS/C2=C(\C#N)c2nc3ccccc3[nH]2)cc1` the same measures were more than 200 µM and more than 200 µM.
For `NC1CC2NC3CCCCC3NC2CC1N` (centres undefined) the same measures were more than 200 µM and 27.5 µM.
For `CN(C(=O)C12C3C4C1(C(=O)O)C1C2C3(C(=O)O)C41C(=O)N(C)C(C)(C)C)C(C)(C)C` (centres undefined) the same measures were more than 17.4 µM and more than 17.4 µM.
For the compound `O=c1c(SCc2ccc(Cl)cc2)c(N2CCOCC2)cnn1-c1ccccc1`, the EC50 was more than 63.1 µM and the IC50 was determined as 44.7 µM.
For `Nc1c(SSc2ccc3ccccc3c2N)ccc2ccccc12` the same measures were more than 50.1 µM and 14.8 µM.
For `CN(C(=O)c1cccs1)C(=S)N1CCN(c2ccccc2)CC1`, the EC50 is more than 55 µM and the IC50 was 30.9 µM.
For `CCCCOCC(=O)C1CC[C@@H]2[C@H](CC[C@]3(C)[C@@H](O)CC[C@@H]23)[C@H]1C(=O)O` (some centres undefined) the same measures were more than 50.1 µM and more than 50.1 µM.
Take `COC(=O)c1c2c(cc3c1CC1(Cc4cc5c(cc4C1)CCCC5)C3)CCCC2`: the EC50 was more than 200 µM and the half-inhibitory concentration (IC50) was more than 200 µM.
For the compound `C/C(N)=C\c1nc(=O)ccs1`, the EC50 is more than 178 µM and the concentration for half-maximal inhibition (IC50) stood at 129 µM.
For `COC(=O)C1=C2Nc3ccccc3[C@@]23CCN(Cc2ccccc2)C3CC1[C@@H]1COC(C)(C)O1` (some centres undefined) the same measures were more than 100 µM and 51.3 µM.
For `COc1ccc2c(c1)CCN1CCc3cc(OC)c(OC)cc3CC21` (centres undefined) the same measures were more than 200 µM and 61.7 µM.
For `COc1cccc(/C=C2\Cc3ccccc3C2=O)c1` the same measures were more than 4.17 µM and more than 4.17 µM.
As to `Cc1nc(N)nc(N)c1N1CCN(c2ccc(S(N)(=O)=O)cc2)CC1`, the EC50 is more than 200 µM and the IC50 was found to be 0.398 µM.
For `Cc1cc(=O)n(CC(=O)O)c2ccccc12` the same measures were more than 200 µM and 105 µM.
Turning to `C/C=C(\C)C(=O)N1c2ccccc2CC1c1c(C)[nH]c2ccccc12` (centres undefined), the EC50 is more than 21.9 µM and the concentration for half-maximal inhibition (IC50) amounted to 6.92 µM.
For `O=C(O)C1CCC(c2ccc(Oc3ccccc3)cc2)=N1` (centres undefined) the same measures were more than 200 µM and more than 200 µM.
For `CC(=O)NC1C(OCC(=O)NCCNc2ccc([N+](=O)[O-])c3[nH]c4ccccc4c(=O)c23)C(O)C(CO)OC1(C)OCc1ccccc1` (centres undefined) the same measures were more than 200 µM and more than 200 µM.
Turning to `C[Si](C)(C)O[C@@H]1CCCC1NCC#N` (some centres undefined), the outcome was inactive.
For the compound `Brc1cn2[n+](c1)[B-]n1cc(Br)c[n+]1[B-]2`, the EC50 was more than 200 µM and the IC50 was 138 µM.
For `O=[N+]([O-])/C(Cl)=C(\NCCO)C(Cl)=C(Cl)Cl` the same measures were more than 200 µM and 63.1 µM.
For the compound `CCOC(=O)C(NC(=O)c1ccccc1)(Nc1ccc(S(=O)(=O)Nc2nc(C)cc(C)n2)cc1)C(F)(F)F` (centres undefined), the EC50 is more than 200 µM and the half-inhibitory concentration (IC50) is more than 200 µM.
Turning to `NC[C@H]1Nc2ccccc2[C@@H](O)C1O` (some centres undefined), the EC50 is 47.9 µM and the IC50 worked out at 1290 µM.
For `Cc1cc(S(=O)(=O)NC2=NCCN2Cc2ccccc2)c(S)cc1Cl` the same measures were more than 200 µM and 58.9 µM.
Turning to `CCCc1[nH]nc(CCC(=O)N(Cc2ccccc2)Cc2ccccc2)c1CC`, the EC50 was more than 331 µM and the half-maximal inhibitory concentration (IC50) is more than 331 µM.
For `CC(=O)Nc1ccc(-c2nnc(SCC(=O)Nc3ccccc3Cl)o2)cc1`, the EC50 was more than 46.8 µM and the IC50 is more than 46.8 µM.
For `COC(=O)C(C(=O)C(=O)Nc1cccc(O)c1)c1nc2ccc(Cl)cc2[nH]c1=O` (centres undefined), the EC50 is more than 87.1 µM and the IC50 is 85.1 µM.
For `CONC(C)=O` the same measures were more than 200 µM and more than 200 µM.
For `CCO/C(Cc1ccc(Cl)cc1)=N/NC(N)=S` the same measures were more than 200 µM and 95.5 µM.
Consider `O=C1CCCC/C1=C\c1ccc(Cl)c(Cl)c1`, for which the outcome was inactive.
`O=C(O)c1ccc(-c2c3ccc(=O)cc-3oc3cc(O)ccc23)c(C(=O)O)c1` yielded an EC50 of 60.3 µM and an IC50 of 162 µM.
For `O=[N+]([O-])c1ccc2nc(/C=C(\O)c3ccc(Cl)cc3)c(/C=C(\O)c3ccc(Cl)cc3)nc2c1` the same measures were more than 200 µM and 89.1 µM.
For `O=C(O)c1ccc2c(c1)CC1(C2)Cc2cc3c(cc2C1=O)CCC3` (centres undefined) the same measures were more than 200 µM and 85.1 µM.
For `O=c1/c(=C/c2ccc(Cl)cc2)sc2nc(-c3ccccc3)nn12` the same measures were more than 200 µM and more than 200 µM.
`CC/C(=N/OC(=O)N(C)C)c1ccccc1`: the EC50 is more than 200 µM and the IC50 was more than 200 µM.
For the compound `C=C1c2[nH]c3ccccc3c2CC(C(=O)O)N1C(O)c1ccc(S(=O)(=O)O)cc1` (centres undefined), the outcome was inactive.
The same measure, in the same setting: the entry for `C=C1C[C@@H]2C[C@@H](C)CC(O)[C@]2(CCCNC(=O)CCOCc2ccccc2)C1O` (some centres undefined) is “inactive”.
As to `Cc1c(C(=O)N(CCO)CCO)[n+](=O)c2ccccc2n1[O-]`, the EC50 was more than 575 µM and the IC50 was more than 575 µM.
On to `Cc1cc([N+](=O)[O-])c(S(=O)(=O)c2ccccc2)c([N+](=O)[O-])c1`, for which the EC50 is more than 22.4 µM and the half-inhibitory concentration (IC50) was 3.63 µM.
For `COc1ccc(C[C@H](N)C(=O)NC2C(CO)OC(n3cnc4c(N(C)C)ncnc43)C2O)cc1` (some centres undefined) the same measures were more than 200 µM and 0.117 µM.
For `O=C1CSC(c2ccc([N+](=O)[O-])cc2)N1c1ccc(-c2ccc(-n3c(-c4ccccc4)nc4ccccc4c3=O)cc2)cc1` (centres undefined) the same measures were more than 200 µM and 39.8 µM.
For `N#C/C(c1nc2ccccc2[nH]1)=c1\s/c(=C/c2ccc(Cl)cc2)c(=O)n1-c1ccccc1` the same measures were more than 200 µM and 107 µM.
For the compound `CC1(CO)CCCC1NCCNC1CCCC1(C)CO` (centres undefined), the EC50 is more than 182 µM and the concentration for half-maximal inhibition (IC50) came to 107 µM.
For `Cc1ccc(NC(=O)CC/C(CC(=O)c2ccc(F)cc2)=N\NC(=O)C(=O)NN)cc1C` the same measures were more than 11.7 µM and more than 11.7 µM.
Take `FC(F)(F)c1nc2ccc(SSc3ccc4nc(C(F)(F)F)[nH]c4c3)cc2[nH]1`: the EC50 was more than 100 µM and the IC50 amounted to 91.2 µM.
For `COc1ccc(CC(COS(=O)(=O)c2ccc(C)cc2)NS(=O)(=O)c2ccc(C)cc2)cc1` (centres undefined) the same measures were more than 200 µM and 26.9 µM.
For `COc1cc(C(O)C(O)c2cc(CN3CCOCC3)c(O)c(OC)c2)cc(CN2CCOCC2)c1O` (centres undefined) the same measures were more than 200 µM and more than 200 µM.
For `COc1ccc(NC(=O)C(=O)/C=C(\O)c2ccccc2)cc1` the same measures were more than 200 µM and 9.33 µM.
`CN1c2ccccc2S(=O)(=O)n2c(COc3ccc(Cl)cc3)nnc21`: the EC50 was more than 200 µM and the half-inhibitory concentration (IC50) is more than 200 µM.
Regarding `COCCCNC(=O)C1C(=O)N(CCCOC)C(=O)/C1=N\N` (centres undefined), the EC50 was more than 214 µM and the IC50 is more than 214 µM.
Regarding `COC1C(OC(=O)c2ccc(C)[nH]2)C(O)C(Oc2ccc3c(O)c(NC(=O)c4c[nH]c(C(=O)Nc5c(O)c6ccc(OC7OC(C)(C)C(OC)C(OC(=O)c8ccc(C)[nH]8)C7O)c(C)c6oc5=O)c4C)c(=O)oc3c2C)OC1(C)C` (centres undefined), the EC50 was more than 28.2 µM and the IC50 is 7.41 µM.
For `N#CC(/C(=N/NC(=O)C(=O)NN)C(=O)NC12CC3CC(CC(C3)C1)C2)c1ccccc1` (centres undefined) the same measures were more than 155 µM and more than 155 µM.
For `CCN(CC)CCNC(=O)c1ccccc1NC(=O)C(=O)Nc1ccccc1C(=O)NCCN(CC)CC` the same measures were more than 6.92 µM and more than 6.92 µM.
For `COC(=O)c1cc(Cc2cc(C(=O)OC)c(OC)c(C(F)(F)F)c2)cc(C(F)(F)F)c1OC` the same measures were more than 200 µM and 25.7 µM.
Regarding `COc1ccc2c(c1)-c1c(c3ccccc3n1CCN1CCCCC1)CC2`, the EC50 was more than 100 µM and the IC50 stood at 30.9 µM.
For `COc1ccc(C2c3ccccc3C3(O)CC2CC(=O)O3)cc1` (centres undefined) the same measures were more than 200 µM and more than 100 µM.
As to `O=C1Nc2ccccc2/C1=N/N1CCCCCC1`, the EC50 is more than 200 µM and the IC50 was 97.7 µM.
As to `CC(C)N(C(=O)C12C3C4C5(C#N)C3C1(C#N)C5C42C#N)C(C)C` (centres undefined), the EC50 was more than 32.4 µM and the IC50 was more than 32.4 µM.
`Cc1cn(C(=O)NC23CC4CC(CC(C4)C2)C3)c(=O)[nH]c1=O`: the EC50 is more than 100 µM and the IC50 was 51.3 µM.
